According to patent US11046682B2, “Fused heterocyclic derivatives, their preparation methods thereof and medical uses thereof” (Beijing Innocare Pharma Tech Co., Ltd., priority 2016, dated 2021):

The molecules below were run against indoleamine 2,3-dioxygenase (IDO) in Hela cells (Homo sapiens (Human), UniProt P14902) (assay: IDO intracellular activity inhibition testing in Hela cells induced by IFN-γ (Ehrlich method)). Details: 24 hours, OD490, 8 concentration points.
Format: cell-based
Description: IDO Intracellular Activity Inhibition Testing
The effects of the compounds of the invention on the activity of indoleamine 2,3-dioxygenase (IDO) in Hela cells induced by IFN-γ were evaluated by the Ehrlich method.
The experimental principle is summarized as follows: IDO expression is low in Hela cells under no induction, but a certain concentration of IFN-γ can induces Hela cells to express IDO which catalyzes the conversion of tryptophan to N-formyl kynurenine, which in turn is hydrolyzed by trichloroacetic acid to give kynurenine. Kynurenine then reacts with the Ehrlich reagent to give a color enabling detection of the IDO activity. The absorbance at 490 nm (OD490) is directly proportional to the IDO activity.
A compound was dissolved in DMSO (Sigma, Cat. No. D5879) and diluted to 5 mM, then serially diluted 3-fold with DMSO to a minimum concentration of 2.29 μM, and each concentration point was diluted 50-fold with FBS-free DMEM medium (ThermoFisher, Cat. No. 11995073). If a compound's IC50 value is very low, the initial concentration of the compound was lowered.
Hela cells (ATCC, Cat. No. CCL-2) were cultured in DMEM complete medium containing 10% FBS (GBICO, Cat. No. 10099-141) and 100 U/mL streptomycin mixture (ThermoFisher, Cat. No. 15140122). When covering the culture vessel 80-90%, the cells were digested with 0.25% trypsin (containing EDTA) (ThermoFisher, Cat. No. 25200056) and planted in 96-well plates (Corning, Cat. No. 3599), 20000 cells per well (80 μL of DMEM medium). The plates were then incubated in a 37° C., 5% CO2 incubator overnight (18-20 hours).
After overnight, 10 μL of DMEM-diluted compound and 10 μL of 500 ng/mL of INF-γ were added to each well, and gently mixed and the 96-well plates were placed in a 37° C., 5% CO2 incubator for further culturing. After 24 hours, they were removed and centrifuged at room temperature 2000×g for 5 min, and then the supernatants were transferred to reaction plates (Sigma, Cat. No. CLS3695). One-twentieth of trichloroacetic acid (Sigma, Cat. No. T9159) was added and incubated at 60° C. After 30 min, the reaction plates were centrifuged at room temperature 2000×g for 5 min. The supernatants were transferred to clean reaction plates, an equal volume of the Ehrlich reagent was added, mixed, and incubated at room temperature. After 15 min, OD490 of each well was measured.
In this experiment, OD490 without IFN-γ but with DMEM medium replacement was referred as OD490100% inhibition. OD490 with IFN-γ and 0.2% DMSO was referred as OD4900% inhibition. The percentage of inhibition on the IDO1 activity in Hela cells by a compound was calculated using the following formula: Inhibition %=100−100*(OD490compound−OD490100% inhibition)/(OD4900% inhibition−OD490100% inhibition)
(§1) Where Y is the percentage of inhibition, Bottom is the bottom platform value of the S-curve, Top is the top platform value of the S-curve, X is the logarithm of the concentration of the test compound, and slope factor is the slope coefficient of the curve.

Chain of indoleamine 2,3-dioxygenase (IDO) in Hela cells (P14902 whole entry): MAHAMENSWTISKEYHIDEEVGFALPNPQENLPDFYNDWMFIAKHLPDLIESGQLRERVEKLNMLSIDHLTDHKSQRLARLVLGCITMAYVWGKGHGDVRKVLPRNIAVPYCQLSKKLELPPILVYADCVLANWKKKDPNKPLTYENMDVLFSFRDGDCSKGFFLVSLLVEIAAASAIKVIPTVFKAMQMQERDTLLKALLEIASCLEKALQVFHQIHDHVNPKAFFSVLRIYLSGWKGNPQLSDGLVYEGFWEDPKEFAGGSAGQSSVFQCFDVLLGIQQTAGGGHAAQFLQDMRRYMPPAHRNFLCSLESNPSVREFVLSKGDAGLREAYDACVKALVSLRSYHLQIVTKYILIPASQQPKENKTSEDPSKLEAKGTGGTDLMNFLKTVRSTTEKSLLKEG

Compound | IC50 [nM]
N#CC1CCC(NC(=O)Nc2c(-c3ccccc3)ccc3cncn23)CC1 (centres unmarked) [Compound 36, 1-(4-cyanocyclohexyl)-3-(6-phenylimidazo[1,5-a]pyridin-5-yl)urea] | < 1000
N#Cc1ccc(NC(=O)C(O)c2c(-c3ccccc3)ccc3cncn23)cc1 (centres unmarked) [Compound 64, N-(4-cyanophenyl)-2-hydroxy-2-(6-phenylimidazo[1,5-a]pyridin-5-yl)acetamide] | < 1000

What follows are molecules tested against full-length human recombinant IDO1 protein (Homo sapiens (Human), UniProt P14902) (assay: IDO enzyme activity inhibition testing (Ehrlich method)). Details: OD490, 10 concentration points.
Format: biochemical
Description: IDO Enzyme Activity Inhibition Testing
The effects of the compounds of the invention on the activity of indoleamine 2,3-dioxygenase (IDO) were evaluated by the Ehrlich method.
The experimental principle is summarized as follows: IDO1 catalyzes oxidation of tryptophan to form N-formyl kynurenine, N-formyl kynurenine is subsequently hydrolyzed by trichloroacetic acid to form kynurenine, and kynurenine further reacts with the Ehrlich reagent to make the solution yellow. The absorbance at 490 nm (OD490) is directly proportional to the activity of IDO1.
The experimental methods are summarized as follows:
The reaction buffer was 50 mM 2-(N-morpholine)ethanesulfonic acid-hydrate (Sigma, Cat. No. 69889); the full-length human recombinant IDO1 protein was purchased from the Tsinghua Protein Research Technology Center and diluted to a 33.6 ng/μL enzyme solution with the reaction buffer; the substrate solution was prepared with the reaction buffer containing 20 mM vitamin C (Sigma, Cat. No. A5960), 150 μM L-tryptophan (Sigma, Cat. No. T0254), 2250 UI/mL catalase (Sigma, Cat. No. C30), and 10 μM methylene blue (Sigma, Cat. No. 28514); the reaction termination solution was 30% (mass/volume) trichloroacetic acid (Sigma, Cat. No. T9159) aqueous solution; the Ehrlich reagent was 2% p-dimethylaminobenzaldehyde (Sigma, Cat. No. 156477) acetic acid (Macklin, Cat. No. A801295) solution.
A compound was dissolved in DMSO (Sigma, Cat. No. D5879) and diluted to 1 mM, then serially diluted 3-fold with DMSO to a minimum concentration of 50.8 nM, and each concentration was further diluted 25-fold with the reaction buffer. If a compound's IC50 value was very low, the initial concentration of the compound was decreased.
A 10-μL compound solution and a 10-μL enzyme solution were added to a 96-well plate (Sigma, Cat. No. CLS3695), mixed well and incubated at room temperature. After 15 min, a 20-μL substrate solution was added and incubated at 60° C. after mixing for 30 min. The reaction plate was equilibrated to room temperature and 60 μL of the Ehrlich reagent was added. After incubation for 15 min, OD490 of each well was measured.
In this experiment, OD490 without enzyme was referred as OD490100% inhibition, and OD490 with enzyme added but without compound was referred as OD4900% inhibition.
as §1

Chain of full-length human recombinant IDO1 protein (P14902 whole entry): as above

Compound | IC50 [nM]
O=C(Nc1ccc(Cl)cc1)Nc1cccc2cncn12 [Compound 3, 1-(4-chlorophenyl)-3-(imidazo[1,5-a]pyridin-5-yl)urea] | 250 to 1500
c1ccc(CNCc2c(-c3ccccc3)ccc3cncn23)cc1 [Compound 58, N-benzyl-1-(6-phenylimidazo[1,5-a]pyridin-5-yl)methanamine] | 250 to 1500
CNC(=O)c1ccc(NC(=O)Nc2c(-c3ccccc3)ccc3cncn23)cc1 [Compound 28, N-methyl-4-(3-(6-phenylimidazo[1,5-a]pyridin-5-yl)ureido)benzamide] | 250 to 1500
O=C(Cc1c(-c2ccccc2)ccc2cncn12)Nc1ccc(C(=O)N2CCOCC2)cc1 [Compound 47, N-(4-(morpholine-4-carbonyl)phenyl)-2-(6-phenylimidazo[1,5-a]pyridin-5-yl)acetamide] | < 250
COc1ccc2cncn2c1NC(=O)Nc1ccc(C#N)cc1 [Compound 15, 1-(4-cyanophenyl)-3-(6-methoxyimidazo[1,5-a]pyridin-5-yl)urea] | 250 to 1500
N#Cc1ccc(CNCc2c(-c3ccccc3)ccc3cncn23)cc1 [Compound 42, 4-((((6-phenylimidazo[1,5-a]pyridin-5-yl)methyl)amino)methyl)benzonitrile] | < 250
N#Cc1ccc(NC(=O)Cc2c(-c3ccccc3)ccc3cncn23)c(CO)c1 [Compound 40, N-(4-cyano-2-(hydroxymethyl)phenyl)-2-(6-phenylimidazo[1,5-a]pyridin-5-yl)acetamide] | 250 to 1500
N#Cc1ccc(NC(=O)Cc2cc(Cl)cc3[nH]ncc23)cc1 [Compound 63, 2-(6-chloro-1H-indazol-4-yl)-N-(4-cyanophenyl)acetamide] | 250 to 1500
N#Cc1ccc(NC(=O)Cc2cc(Cl)cc3cncn23)cc1 [Compound 41, 2-(7-chloroimidazo[1,5-a]pyridin-5-yl)-N-(4-cyanophenyl)acetamide] | < 250
COCCn1cc(-c2ccc(NC(=O)Cc3c(-c4ccccc4)ccc4cncn34)cc2)cn1 [Compound 52, N-(4-(1-(2-methoxyethyl)-1H-pyrazol-4-yl)phenyl)-2-(6-phenylimidazo[1,5-a]pyridin-5-yl)acetamide] | < 250
O=C(Nc1ccc(C(=O)O)cc1)Nc1c(-c2ccccc2)ccc2cncn12 [Compound 27, 4-(3-(6-phenylimidazo[1,5-a]pyridin-5-yl)ureido)benzoic acid] | 250 to 1500
N#Cc1ccc(NC(=O)Nc2c(-c3ccccc3)ccc3cncn23)nc1 [Compound 33, 1-(5-cyanopyridin-2-yl)-3-(6-phenylimidazo[1,5-a]pyridin-5-yl)urea] | 250 to 1500
N#Cc1ccc(NC(=O)Nc2c(-c3ccccc3)ccc3cncn23)cn1 [Compound 32, 1-(6-cyanopyridin-3-yl)-3-(6-phenylimidazo[1,5-a]pyridin-5-yl)urea] | < 250
O=C(Nc1ccc(C(=O)NCCO)cc1)Nc1c(-c2ccccc2)ccc2cncn12 [Compound 30, N-(2-hydroxyethyl)-4-(3-(6-phenylimidazo[1,5-a]pyridin-5-yl)ureido)benzamide] | 250 to 1500
N#Cc1ccc(NC(=O)Nc2cccc3cncn23)cc1 [Compound 1, 1-(4-cyanophenyl)-3-(imidazo[1,5-a]pyridin-5-yl)urea] | 250 to 1500
N#Cc1ccc(NC(=O)Nc2cc(Cl)cc3cncn23)cc1 [Compound 20, 1-(7-chloroimidazo[1,5-a]pyridin-5-yl)-3-(4-cyanophenyl)urea] | < 250
c1ccc(-c2ccc3cncn3c2CNCC2CCCCC2)cc1 [Compound 59, 1-cyclohexyl-N-((6-phenylimidazo[1,5-a]pyridin-5-yl)methyl)methanamine] | 250 to 1500
CCOc1ccc2cncn2c1NC(=O)Nc1ccc(C#N)cc1 [Compound 16, 1-(4-cyanophenyl)-3-(6-ethoxyimidazo[1,5-a]pyridin-5-yl)urea] | 250 to 1500
COc1cc(C#N)ccc1NC(=O)Nc1c(-c2ccccc2)ccc2cncn12 [Compound 35, 1-(4-cyano-2-methoxyphenyl)-3-(6-phenylimidazo[1,5-a]pyridin-5-yl)urea] | < 250
CC(C)CNCc1c(-c2ccccc2)ccc2cncn12 [Compound 61, 2-methyl-N-((6-phenylimidazo[1,5-a]pyridin-5-yl)methyl)propan-1-amine] | 250 to 1500
COc1cc(NC(=O)Nc2c(-c3ccccc3)ccc3cncn23)ccc1C#N [Compound 34, 1-(4-cyano-3-methoxyphenyl)-3-(6-phenylimidazo[1,5-a]pyridin-5-yl)urea] | < 250
CN(Cc1ccc(C#N)cc1)Cc1c(-c2ccccc2)ccc2cncn12 [Compound 55, 4-((methyl((6-phenylimidazo[1,5-a]pyridin-5-yl)methyl)amino)methyl)benzonitrile] | 250 to 1500
N#Cc1ccc(NC(=O)Nc2c(F)ccc3cncn23)cc1 [Compound 14, 1-(4-cyanophenyl)-3-(6-fluoroimidazo[1,5-a]pyridin-5-yl)urea] | < 250
CC(C)(O)CNCc1c(-c2ccccc2)ccc2cncn12 [Compound 62, 2-methyl-1-(((6-phenylimidazo[1,5-a]pyridin-5-yl)methyl)amino)propan-2-ol] | < 250
COC1CCN(C(=O)c2ccc(NC(=O)Cc3c(-c4ccccc4)ccc4cncn34)cc2)CC1 [Compound 48, N-(4-(4-methoxypiperidine-1-carbonyl)phenyl)-2-(6-phenylimidazo[1,5-a]pyridin-5-yl)acetamide] | < 250
NC(=O)c1ccc(NC(=O)Nc2c(-c3ccccc3)ccc3cncn23)cc1 [Compound 29, 4-(3-(6-phenylimidazo[1,5-a]pyridin-5-yl)ureido)benzamide] | 250 to 1500
N#Cc1ccc(N(O)C(=O)Cc2c(-c3ccccc3)ccc3cncn23)cc1 [Compound 45, N-(4-cyanophenyl)-N-hydroxy-2-(6-phenylimidazo[1,5-a]pyridin-5-yl)acetamide] | < 250
